BigSolDB 2.1

C=C1CCC[C@]2(C)C[C@]3(O)OC(=O)C(C)=C3C[C@@H]12
solubility (mole fraction)
Details	283.2 K	288.2 K	293.2 K	298.2 K	303.2 K	308.2 K	313.2 K	318.2 K	323.2 K
in diethyl ether	0.00277	0.00375	0.00562	0.00738	0.00939	–	–	–	–
in ethanol	0.00443	0.00547	0.00673	0.00809	0.00966	0.0113	0.0131	0.0151	0.0171
in ethyl acetate	0.0224	0.0228	0.0236	0.0242	0.0252	0.0261	0.0271	0.0282	0.0293
in n-hexane	2.44e-05	4.12e-05	6.39e-05	8.32e-05	0.000113	0.000153	0.000202	0.000272	0.000336
